Assay results reported in patent US9545393B2, “Methods and compositions for treating pain” (The Board of Trustees of the Leland Stanford Junior …, priority 2012, dated 2017).
“Also recorded” adds a separate entry of the source.

Legend:
[1] = test system: rats subjected to carrageenan insult to the right hind paw; experiment: Randall-Selitto paw pressure test, carrageenan-induced hyperalgesia in rats; assay type: in vivo, rat
Description: Rats. Male Wistar rats (170-190 g) were provided by Charles River Laboratories or Butantan Institute Animal Facility and housed in a temperature-controlled (22±1° C.) and light-controlled (12/12 h light/dark cycle) room. All rats were housed in their surrounding for at least 3 days. Groups of 5-6 rats were used.
Drugs Used. 0.1 ml saline (control), carrageenan (200 μg for rats, 100 μg for mice; Marine Colloids), or prostaglandin E2 (100 ng, Sigma) was administered by intraplantar injection into the right hind paw to induce hyperalgesia. These doses were chosen based on previous studies by our laboratory groups (Aley K O, et al., (2000) Chronic hypersensitivity for inflammatory nociceptor sensitization mediated by the epsilon isozyme of protein kinase C. The Journal of neuroscience: the official journal of the Society for Neuroscience 20: 4680-4685; Konno K, et al., (2008) Crotalphine, a novel potent analgesic peptide from the venom of the South American rattlesnake Crotalus durissus terrificus. Peptides 29: 1293-1304).
Alda-1 dose (2 mg/kg/per injection, dissolved in 50% PEG/50% DMSO) was established in preliminary studies and given in multiple doses due to its estimated short half-life. Alda-1 was injected subcutaneously to the dorsal side of the neck 15 minutes before carrageenan or saline, and again at 30 and 150 minutes after carrageenan, prostaglandin E2 or saline injection. One subset of animals received Alda-1 only 30 and 150 minutes after carrageenan injection. Where indicated, naloxone (1 mg/kg per injection) or vehicle (saline) was given 10 minutes prior to each Alda-1 treatment to the dorsal side of the neck.
Nociception Assessment. The experimental performer was blinded to both genotype and/or treatments. Nociceptive response was assessed by the von Frey method for mice and the Randall-Selitto method for rats immediately before and 180 minutes after carrageenan or prostaglandin E2 injection. Both mice and rats were acclimated to the testing equipment one day before baseline testing.
Randall-Selitto method: Nociceptive threshold was determined using the Randall-Selitto paw pressure test (Ugo-Basile), as previously described (Gutierrez V P, et al., (2008) Crotalphine induces potent antinociception in neuropathic pain by acting at peripheral opioid receptors. European journal of pharmacology 594: 84-92). The baseline values varied between 65-75 g of force. Animals with baseline out of this range (about 10%) were excluded prior to initiating the study in order to achieve uniform testing.

ALDH2 wild type mice = experiment: von Frey hair test, carrageenan-induced acute pain model, wild type mice; assay type: in vivo, mouse; conditions: von Frey hair (1.20 gram in FIG. 1E), Alda-1 2 mg/kg s.c.
acetaldehyde = experiment: Tissue acetaldehyde measurement in paw by LC-MS/MS; assay type: in vivo, rat; conditions: rats, Alda-1 versus carrageenan alone
Description: Tissue Acetaldehyde Measurements. Paw samples were quickly sealed in microcentrifuge tubes, weighed and 3 volumes (v/w) of 0.75 mg/mL Liberase T L (Roche, Indianapolis, Ind.) was added for overnight digestion at 37° C. Acetaldehyde standard solutions (100-5000 ng/mL) and the tissue samples were reacted with saturated 2,4 dinitrophenylhydrazine solution.
To establish LC-MS/MS conditions, the standard of acetaldehyde 2,4-dinitrophenyl-hydrazine (DNPH) was used. Chromatograms of standards were used to establish characteristic retention times of acetaldehyde, and verified the MS signal was linear over the range of 0.1-5 μg/mL. The acetaldehyde peak area derivatives were calculated and plotted against the concentration of the calibration standards using Analyst®1.5.1 software.
Aliquots (30 μL) were taken from each paw homogenate sample. Acetaldehyde in samples of paw homogenate was extracted by adding methanol containing 40 μg/mL DNPH (150 μL). Both unknown samples and standards were vortexed and centrifuged to separate the precipitate. Ten microliters of sample extracts were injected into LC MS/MS for analysis. Automatic peak detection, integration and data processing were performed by the AB SCIEX Analyst 1.5.1 software package. Concentrations of acetaldehyde were calculated by plotting peak area of unknown samples against a standard curve. […]

O=C(NCc1ccc2c(c1)OCO2)c1c(Cl)cccc1Cl [Alda-1, N-(1,3-benzodioxol-5-ylmethyl)-2,6-dichlorobenzamide]
Nociceptive threshold when Alda-1 is given after the insult ([1]; Alda-1 2 mg/kg s.c. only 30 and 150 minutes after carrageenan, Randall-Selitto, P<0.0001, 2 mg/kg): increased the nociceptive threshold; also recorded: significantly increased nociceptive threshold | Nociceptive threshold (FIG. 1B) ([1]; carrageenan insult, Alda-1 2 mg/kg s.c., 3 hours after insult, P<0.001): significantly increased nociceptive threshold | Increase of nociceptive threshold ([1]; carrageenan-induced model, Alda-1 2 mg/kg s.c. 15 min before and 30 and 150 min after insult, tested 3 hours after insult): 2 fold | Reduction of carrageenan-induced hyperalgesia compared with atenolol or celecoxib ([1]; comparison to previous publication using the same rat hyperalgesia model (Chacur et al, 2003)): more effective than atenolol or celecoxib | Effect of Alda-1 on nociceptive threshold in the presence of naloxone ([1]; naloxone 1 mg/kg s.c. 10 minutes before each Alda-1 treatment, Alda-1 after carrageenan): not blunted | Nociceptive threshold relative to vehicle-treated mice (ALDH2 wild type mice): significantly increased pain threshold; also recorded: doubling the nociceptive threshold | Decrease of the level of acetaldehyde in paw (acetaldehyde; carrageenan-induced hyperalgesia): ~50% | Carrageenan-induced acetaldehyde levels in inflamed paw (FIG. 2F) (acetaldehyde; P<0.05): significantly reduced
